Test results as given in PMC5564600 (Oncotarget, 2017).
Where two headings read alike, the source gives them in different places.

Tests used:
Assay in all cases: biochemical
Type in all cases: binding
panel of 442 kinases [1] = target: T1, panel of 442 kinases (Homo sapiens, UniProt O15111); details: kinase IKK-alpha; for remaining activity at 1 µM: read-out: % of control at 1 µM
T1 construct: purchased Ambit Biosciences (scanMAXX KINOMEscan)
T1 sequence (O15111 1-745): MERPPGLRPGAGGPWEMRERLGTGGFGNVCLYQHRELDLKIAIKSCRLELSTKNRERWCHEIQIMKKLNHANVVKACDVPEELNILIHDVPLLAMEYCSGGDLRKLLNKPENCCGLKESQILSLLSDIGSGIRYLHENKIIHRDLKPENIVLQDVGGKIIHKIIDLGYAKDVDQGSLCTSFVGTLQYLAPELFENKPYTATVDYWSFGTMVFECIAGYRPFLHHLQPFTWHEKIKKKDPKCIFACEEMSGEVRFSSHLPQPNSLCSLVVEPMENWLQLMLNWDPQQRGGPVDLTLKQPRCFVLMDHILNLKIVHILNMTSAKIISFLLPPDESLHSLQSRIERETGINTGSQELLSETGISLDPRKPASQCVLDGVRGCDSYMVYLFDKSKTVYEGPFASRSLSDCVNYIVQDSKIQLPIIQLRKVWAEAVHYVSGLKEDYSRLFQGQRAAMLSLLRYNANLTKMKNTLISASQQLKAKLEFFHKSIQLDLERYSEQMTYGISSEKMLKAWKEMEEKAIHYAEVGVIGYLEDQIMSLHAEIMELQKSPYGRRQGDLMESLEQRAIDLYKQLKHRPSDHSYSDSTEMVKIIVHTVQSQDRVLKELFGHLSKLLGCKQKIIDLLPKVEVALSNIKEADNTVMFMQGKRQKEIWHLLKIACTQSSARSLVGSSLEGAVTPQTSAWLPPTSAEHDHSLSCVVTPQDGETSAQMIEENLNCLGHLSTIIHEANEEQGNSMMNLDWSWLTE

panel of 442 kinases [2] = target: T2, panel of 442 kinases (Homo sapiens, UniProt O60331); details: kinase PIP5K1C; for remaining activity at 1 µM: read-out: % of control at 1 µM
T2 construct: purchased Ambit Biosciences (scanMAXX KINOMEscan)

panel of 442 kinases [3] = target: T3, panel of 442 kinases (Homo sapiens, UniProt P08069); details: kinase IGF1R; for remaining activity at 1 µM: read-out: % of control at 1 µM
T3 construct: purchased Ambit Biosciences (scanMAXX KINOMEscan)

panel of 442 kinases [4] = target: T4, panel of 442 kinases (Homo sapiens, UniProt P49761); details: CLK3; for remaining activity at 1 µM: read-out: % of control at 1 µM
T4 construct: purchased Ambit Biosciences (scanMAXX KINOMEscan)
T4 sequence (P49761 whole entry): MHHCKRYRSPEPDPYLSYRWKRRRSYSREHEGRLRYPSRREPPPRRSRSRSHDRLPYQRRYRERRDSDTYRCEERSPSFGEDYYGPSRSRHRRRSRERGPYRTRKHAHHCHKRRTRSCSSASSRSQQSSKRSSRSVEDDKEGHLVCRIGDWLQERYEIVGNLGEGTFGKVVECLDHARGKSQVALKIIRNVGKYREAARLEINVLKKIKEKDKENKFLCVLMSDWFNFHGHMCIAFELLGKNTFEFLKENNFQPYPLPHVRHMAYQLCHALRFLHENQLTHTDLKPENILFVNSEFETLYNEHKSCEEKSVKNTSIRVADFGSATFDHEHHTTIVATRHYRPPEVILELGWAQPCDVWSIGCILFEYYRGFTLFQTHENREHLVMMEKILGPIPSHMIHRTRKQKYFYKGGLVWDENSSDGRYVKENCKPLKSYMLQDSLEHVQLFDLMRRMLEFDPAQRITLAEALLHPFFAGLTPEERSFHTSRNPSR

panel of 442 kinases [5] = target: T5, panel of 442 kinases (Homo sapiens, UniProt Q15418)
T5 construct: purchased Ambit Biosciences (scanMAXX KINOMEscan)
T5 sequence (Q15418 whole entry): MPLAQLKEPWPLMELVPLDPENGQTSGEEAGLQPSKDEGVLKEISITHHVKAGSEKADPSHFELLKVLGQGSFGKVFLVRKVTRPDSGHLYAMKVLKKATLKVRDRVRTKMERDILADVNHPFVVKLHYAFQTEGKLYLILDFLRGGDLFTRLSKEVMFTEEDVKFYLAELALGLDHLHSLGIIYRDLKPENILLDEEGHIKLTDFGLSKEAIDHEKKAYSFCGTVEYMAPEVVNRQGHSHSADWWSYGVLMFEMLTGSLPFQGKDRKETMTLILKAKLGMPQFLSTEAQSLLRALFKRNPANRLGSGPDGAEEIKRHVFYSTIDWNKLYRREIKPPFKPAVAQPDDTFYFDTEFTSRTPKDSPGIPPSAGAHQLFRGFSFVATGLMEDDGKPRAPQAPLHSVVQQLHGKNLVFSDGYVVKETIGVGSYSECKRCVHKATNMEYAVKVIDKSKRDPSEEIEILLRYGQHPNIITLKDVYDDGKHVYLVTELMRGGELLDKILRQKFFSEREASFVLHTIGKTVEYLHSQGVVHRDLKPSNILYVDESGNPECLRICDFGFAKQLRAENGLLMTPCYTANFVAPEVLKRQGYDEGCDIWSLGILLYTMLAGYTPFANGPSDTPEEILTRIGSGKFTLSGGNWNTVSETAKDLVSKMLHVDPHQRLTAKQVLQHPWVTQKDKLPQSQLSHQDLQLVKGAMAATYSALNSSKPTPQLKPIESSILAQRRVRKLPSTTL

panel of 442 kinases [6] = target: T6, panel of 442 kinases (Homo sapiens, UniProt Q15746); details: kinase MYLK; for remaining activity at 1 µM: read-out: % of control at 1 µM
T6 construct: purchased Ambit Biosciences (scanMAXX KINOMEscan)
T6 sequence (Q15746 whole entry): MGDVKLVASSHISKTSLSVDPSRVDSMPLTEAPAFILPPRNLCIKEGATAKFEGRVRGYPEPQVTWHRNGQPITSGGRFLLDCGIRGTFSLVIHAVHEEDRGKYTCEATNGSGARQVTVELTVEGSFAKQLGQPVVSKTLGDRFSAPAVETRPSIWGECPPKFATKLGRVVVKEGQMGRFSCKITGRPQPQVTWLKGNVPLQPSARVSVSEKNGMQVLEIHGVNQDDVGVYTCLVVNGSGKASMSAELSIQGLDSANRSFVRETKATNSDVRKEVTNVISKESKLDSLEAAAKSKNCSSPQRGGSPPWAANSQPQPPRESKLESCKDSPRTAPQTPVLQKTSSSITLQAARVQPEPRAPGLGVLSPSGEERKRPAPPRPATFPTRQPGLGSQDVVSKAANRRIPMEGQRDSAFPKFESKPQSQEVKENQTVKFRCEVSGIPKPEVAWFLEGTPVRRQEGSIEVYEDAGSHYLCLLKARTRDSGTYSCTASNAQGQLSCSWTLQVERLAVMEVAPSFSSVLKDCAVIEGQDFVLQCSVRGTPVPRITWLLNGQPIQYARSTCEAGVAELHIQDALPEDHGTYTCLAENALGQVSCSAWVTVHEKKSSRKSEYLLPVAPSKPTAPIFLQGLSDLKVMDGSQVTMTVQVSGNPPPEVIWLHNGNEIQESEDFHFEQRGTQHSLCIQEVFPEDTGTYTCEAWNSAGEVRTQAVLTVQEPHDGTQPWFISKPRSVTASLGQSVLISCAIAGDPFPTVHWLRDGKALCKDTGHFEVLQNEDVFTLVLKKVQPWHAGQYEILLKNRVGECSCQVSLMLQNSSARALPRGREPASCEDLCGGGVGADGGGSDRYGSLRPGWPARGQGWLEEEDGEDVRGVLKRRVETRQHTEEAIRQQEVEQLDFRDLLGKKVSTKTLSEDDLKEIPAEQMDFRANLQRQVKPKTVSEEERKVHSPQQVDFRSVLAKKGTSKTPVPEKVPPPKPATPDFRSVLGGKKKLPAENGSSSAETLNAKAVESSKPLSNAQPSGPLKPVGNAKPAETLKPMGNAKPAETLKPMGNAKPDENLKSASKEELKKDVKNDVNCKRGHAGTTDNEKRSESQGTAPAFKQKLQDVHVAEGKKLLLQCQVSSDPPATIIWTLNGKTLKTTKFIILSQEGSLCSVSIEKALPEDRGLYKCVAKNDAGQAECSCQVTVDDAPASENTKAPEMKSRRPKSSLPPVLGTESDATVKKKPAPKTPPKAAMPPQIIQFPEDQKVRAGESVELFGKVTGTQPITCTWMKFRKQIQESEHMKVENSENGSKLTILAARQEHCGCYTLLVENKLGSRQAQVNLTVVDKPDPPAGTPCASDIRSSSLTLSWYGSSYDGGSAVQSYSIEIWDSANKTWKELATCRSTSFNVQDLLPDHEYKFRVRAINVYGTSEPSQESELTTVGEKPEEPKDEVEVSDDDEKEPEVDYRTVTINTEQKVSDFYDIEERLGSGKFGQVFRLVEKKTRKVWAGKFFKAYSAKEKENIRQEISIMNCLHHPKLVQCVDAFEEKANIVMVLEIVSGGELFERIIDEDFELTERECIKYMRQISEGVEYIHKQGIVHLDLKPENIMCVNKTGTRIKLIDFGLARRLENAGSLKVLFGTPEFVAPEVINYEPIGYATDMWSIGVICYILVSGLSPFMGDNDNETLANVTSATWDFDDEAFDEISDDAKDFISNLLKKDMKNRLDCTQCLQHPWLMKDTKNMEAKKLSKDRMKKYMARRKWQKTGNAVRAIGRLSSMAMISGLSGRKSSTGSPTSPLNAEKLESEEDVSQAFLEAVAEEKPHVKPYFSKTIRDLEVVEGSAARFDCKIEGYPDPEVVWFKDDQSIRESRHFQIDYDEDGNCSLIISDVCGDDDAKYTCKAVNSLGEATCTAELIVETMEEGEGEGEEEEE

panel of 442 kinases [7] = target: T7, panel of 442 kinases (Homo sapiens, UniProt Q16512); details: kinase PKN1; for remaining activity at 1 µM: read-out: PKN1 (% of control at 1 µM)
T7 construct: purchased Ambit Biosciences (scanMAXX KINOMEscan)
T7 sequence (Q16512 whole entry): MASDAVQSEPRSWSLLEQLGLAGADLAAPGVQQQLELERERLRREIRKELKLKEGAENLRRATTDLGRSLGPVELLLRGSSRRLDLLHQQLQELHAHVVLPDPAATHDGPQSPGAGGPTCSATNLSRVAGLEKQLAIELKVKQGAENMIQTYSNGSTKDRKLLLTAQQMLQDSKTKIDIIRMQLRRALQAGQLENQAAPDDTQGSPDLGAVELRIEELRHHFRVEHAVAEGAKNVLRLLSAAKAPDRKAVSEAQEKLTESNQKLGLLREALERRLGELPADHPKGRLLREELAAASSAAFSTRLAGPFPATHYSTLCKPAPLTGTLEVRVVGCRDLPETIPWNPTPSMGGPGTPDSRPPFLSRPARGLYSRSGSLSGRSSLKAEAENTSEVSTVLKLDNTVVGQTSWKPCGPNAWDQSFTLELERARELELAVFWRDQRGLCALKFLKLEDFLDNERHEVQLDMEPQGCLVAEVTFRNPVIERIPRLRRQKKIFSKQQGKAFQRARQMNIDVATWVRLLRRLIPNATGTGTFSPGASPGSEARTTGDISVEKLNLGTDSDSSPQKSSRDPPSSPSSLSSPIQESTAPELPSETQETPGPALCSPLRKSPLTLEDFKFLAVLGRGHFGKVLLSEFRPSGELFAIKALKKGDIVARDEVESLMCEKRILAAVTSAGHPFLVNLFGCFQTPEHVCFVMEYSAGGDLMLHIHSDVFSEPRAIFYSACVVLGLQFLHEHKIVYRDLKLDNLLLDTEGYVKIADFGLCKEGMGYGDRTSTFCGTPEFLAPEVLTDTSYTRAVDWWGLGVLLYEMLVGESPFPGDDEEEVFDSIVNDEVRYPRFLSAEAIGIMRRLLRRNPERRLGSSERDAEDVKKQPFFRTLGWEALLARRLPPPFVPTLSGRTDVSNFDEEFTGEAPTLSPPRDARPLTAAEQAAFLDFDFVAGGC

panel of 442 kinases [8] = target: T8, panel of 442 kinases (Homo sapiens, UniProt Q8IU85); details: CAMK1D; for remaining activity at 1 µM: read-out: % of control at 1 µM
T8 construct: purchased Ambit Biosciences (scanMAXX KINOMEscan)
T8 sequence (Q8IU85 whole entry): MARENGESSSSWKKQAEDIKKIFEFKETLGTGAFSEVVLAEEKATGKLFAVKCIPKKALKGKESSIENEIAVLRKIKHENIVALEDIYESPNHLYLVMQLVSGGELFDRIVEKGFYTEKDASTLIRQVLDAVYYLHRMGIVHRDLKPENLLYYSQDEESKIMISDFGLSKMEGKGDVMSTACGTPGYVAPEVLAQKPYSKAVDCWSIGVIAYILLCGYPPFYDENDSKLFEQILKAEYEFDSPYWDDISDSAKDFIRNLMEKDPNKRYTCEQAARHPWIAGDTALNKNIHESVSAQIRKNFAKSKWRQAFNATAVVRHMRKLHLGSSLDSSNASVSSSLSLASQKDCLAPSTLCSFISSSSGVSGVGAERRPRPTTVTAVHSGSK

panel of 442 kinases [9] = target: T9, panel of 442 kinases (Homo sapiens, UniProt Q9BXA7); details: kinase TSSK1B; for remaining activity at 1 µM: read-out: TSSK1B (% of control at 1 µM)
T9 construct: purchased Ambit Biosciences (scanMAXX KINOMEscan)
T9 sequence (Q9BXA7 1-367): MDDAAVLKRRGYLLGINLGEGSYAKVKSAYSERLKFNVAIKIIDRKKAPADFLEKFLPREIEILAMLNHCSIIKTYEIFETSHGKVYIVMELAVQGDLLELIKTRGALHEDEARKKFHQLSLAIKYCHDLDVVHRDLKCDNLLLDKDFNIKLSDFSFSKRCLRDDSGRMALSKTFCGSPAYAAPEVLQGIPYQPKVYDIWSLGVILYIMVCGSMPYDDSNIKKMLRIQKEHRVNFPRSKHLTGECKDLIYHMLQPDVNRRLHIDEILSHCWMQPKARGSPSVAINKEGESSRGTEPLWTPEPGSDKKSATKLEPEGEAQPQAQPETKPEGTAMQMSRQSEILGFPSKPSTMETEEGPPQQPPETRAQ

panel of 442 kinases [10] = target: T10, panel of 442 kinases (Homo sapiens, UniProt Q9H2K8); details: kinase TAOK3; for remaining activity at 1 µM: read-out: TAOK3 (% of control at 1 µM)
T10 construct: purchased Ambit Biosciences (scanMAXX KINOMEscan)
T10 sequence (Q9H2K8 1-898): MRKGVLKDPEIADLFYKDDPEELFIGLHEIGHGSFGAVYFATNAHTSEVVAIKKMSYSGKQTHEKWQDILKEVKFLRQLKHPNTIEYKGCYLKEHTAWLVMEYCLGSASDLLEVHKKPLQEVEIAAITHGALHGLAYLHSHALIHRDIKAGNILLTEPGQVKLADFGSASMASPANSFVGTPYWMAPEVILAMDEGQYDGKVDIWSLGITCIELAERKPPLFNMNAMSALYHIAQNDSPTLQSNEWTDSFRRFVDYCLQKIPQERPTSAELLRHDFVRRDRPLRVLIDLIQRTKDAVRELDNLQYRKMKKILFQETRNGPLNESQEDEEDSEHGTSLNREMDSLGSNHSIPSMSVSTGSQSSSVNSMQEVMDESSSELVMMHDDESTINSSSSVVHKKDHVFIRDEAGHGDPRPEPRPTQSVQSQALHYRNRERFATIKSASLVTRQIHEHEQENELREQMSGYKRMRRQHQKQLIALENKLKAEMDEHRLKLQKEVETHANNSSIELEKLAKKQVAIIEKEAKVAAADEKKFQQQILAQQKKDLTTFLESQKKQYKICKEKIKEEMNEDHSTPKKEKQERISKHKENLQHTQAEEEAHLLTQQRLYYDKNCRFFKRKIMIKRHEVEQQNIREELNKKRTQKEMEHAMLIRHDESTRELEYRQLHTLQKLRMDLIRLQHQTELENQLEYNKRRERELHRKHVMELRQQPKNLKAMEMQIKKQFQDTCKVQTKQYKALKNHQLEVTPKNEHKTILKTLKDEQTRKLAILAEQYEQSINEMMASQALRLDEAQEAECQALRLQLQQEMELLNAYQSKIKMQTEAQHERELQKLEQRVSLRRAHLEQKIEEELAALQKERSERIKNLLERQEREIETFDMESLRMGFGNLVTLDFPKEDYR

panel of 442 kinases [11] = target: T11, panel of 442 kinases (Homo sapiens, UniProt Q9UQM7); details: CAMK2A; for remaining activity at 1 µM: read-out: % of control at 1 µM
T11 construct: purchased Ambit Biosciences (scanMAXX KINOMEscan)
T11 sequence (Q9UQM7 whole entry): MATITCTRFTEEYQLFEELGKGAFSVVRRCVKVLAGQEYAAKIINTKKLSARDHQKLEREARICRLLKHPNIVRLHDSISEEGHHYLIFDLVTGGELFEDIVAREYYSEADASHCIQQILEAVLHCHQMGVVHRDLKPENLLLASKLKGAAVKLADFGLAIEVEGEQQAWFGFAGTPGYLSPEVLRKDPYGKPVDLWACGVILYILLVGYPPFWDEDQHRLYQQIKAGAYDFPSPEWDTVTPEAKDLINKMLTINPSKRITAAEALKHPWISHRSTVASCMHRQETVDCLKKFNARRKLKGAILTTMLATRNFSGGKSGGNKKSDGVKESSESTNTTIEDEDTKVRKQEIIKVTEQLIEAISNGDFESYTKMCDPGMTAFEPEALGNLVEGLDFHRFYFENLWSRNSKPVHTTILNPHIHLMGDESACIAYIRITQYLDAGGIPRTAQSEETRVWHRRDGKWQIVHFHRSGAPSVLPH

[12] = 10 µM, read-out: % of control at 10 µM
[13] = kinase RSK1(Kin.Dom.1-N-terminal), read-out: RSK1(Kin.Dom.1-N-terminal) (% of control at 1 µM)
[14] = kinase RSK1(Kin.Dom.2-C-terminal), read-out: RSK1(Kin.Dom.2-C-terminal) (% of control at 1 µM)

Compound | remaining activity at 1 µM (panel of 442 kinases [1]) [%] | remaining activity at 1 µM (panel of 442 kinases [2]) [%] | remaining activity at 1 µM (panel of 442 kinases [3]) [%] | remaining activity at 1 µM (panel of 442 kinases [4]) [%] | remaining activity at 1 µM (panel of 442 kinases [5]; [13]) [%] | remaining activity at 1 µM (panel of 442 kinases [5]; [14]) [%] | remaining activity at 1 µM (panel of 442 kinases [6]) [%] | remaining activity at 1 µM (panel of 442 kinases [7]) [%] | remaining activity at 1 µM (panel of 442 kinases [8]) [%] | remaining activity at 1 µM (panel of 442 kinases [9]) [%] | remaining activity at 1 µM (panel of 442 kinases [10]) [%] | remaining activity at 1 µM (panel of 442 kinases [11]) [%] | further results
Nc1cc(C(F)(F)F)c(-c2cc(N3CCOCC3)nc(N3CCOCC3)n2)cn1 [Buparlisib] | 59 | 55 | 100 | 100 | 100 | 97 | 99 | 89 | 100 | 97 | 89 | 100 | remaining activity at 10 µM (panel of 442 kinases [1]; [12]): 59%; remaining activity at 10 µM (panel of 442 kinases [2]; [12]): 63%; remaining activity at 10 µM (panel of 442 kinases [3]; [12]): 100%; remaining activity at 10 µM (panel of 442 kinases [4]; [12]): 94%; remaining activity at 10 µM (panel of 442 kinases [5]; kinase RSK1(Kin.Dom.1-N-terminal), read-out: RSK1(Kin.Dom.1-N-terminal) (% of control at 10 µM)): 100%; remaining activity at 10 µM (panel of 442 kinases [5]; kinase RSK1(Kin.Dom.2-C-terminal), read-out: RSK1(Kin.Dom.2-C-terminal) (% of control at 10 µM)): 98%; remaining activity at 10 µM (panel of 442 kinases [6]; [12]): 92%; remaining activity at 10 µM (panel of 442 kinases [7]; 10 µM, read-out: PKN1 (% of control at 10 µM)): 100%; remaining activity at 10 µM (panel of 442 kinases [8]; [12]): 100%; remaining activity at 10 µM (panel of 442 kinases [9]; 10 µM, read-out: TSSK1B (% of control at 10 µM)): 100%; remaining activity at 10 µM (panel of 442 kinases [10]; 10 µM, read-out: TAOK3 (% of control at 10 µM)): 78%; remaining activity at 10 µM (panel of 442 kinases [11]; [12]): 100%
Cn1c(=O)n(-c2ccc(C(C)(C)C#N)cc2)c2c3cc(-c4cnc5ccccc5c4)ccc3ncc21 [Dactolisib, 2-methyl-2-[4-(3-methyl-2-oxo-8-quinolin-3-yl-2,3-dihydroimidazo[4,5-c]quinolin-1-yl)-phenyl] propionitrile] | 63 | 100 | 95 | 50 | 77 | 61 | 100 | 100 | 87 | 98 | 100 | 90 | –
COc1ncc(-c2ccc3nccc(-c4ccnnc4)c3c2)cc1NS(=O)(=O)c1ccc(F)cc1F [Omipalisib] | 100 | 100 | 100 | 93 | 95 | 95 | 78 | 94 | 87 | 100 | 100 | 100 | –
FC(F)c1nc2ccccc2n1-c1nc(N2CCOCC2)nc(N2CCOCC2)n1 [ZSTK474, 2-(difluoromethyl)-1-[4,6-di(4-morpholinyl)-1,3,5-triazin-2-yl]-1H-benzimidazole] | 73 | 100 | 100 | 100 | 100 | 83 | 100 | 90 | 100 | 76 | 92 | 87 | –
